Test results from patent publication US10508120B2, “TYK2 inhibitors and uses thereof” (Nimbus Lakshmi, Inc., priority 2017, dated 2019).
Read-outs that look alike come from different tables or passages of the source.

What was measured:
[1] = molecular target: human TYK2 (JH2domain-pseudokinase) (Homo sapiens (Human), UniProt P29597); test: TYK2 JH2 Domain Binding Assay (KINOMEscan)
In short: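 Competition binding of a DNA-tagged fusion of human TYK2 JH2 pseudokinase (G556–D888) with NFkB DNA-binding domain, from HEK293 extracts (<0.1 nM final), against immobilised ligand beads; 1 h shaking at room temperature, 0.9% DMSO. Bound kinase quantified by qPCR.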

[2] = molecular target: Tyk2 kinase domain (DH1) (Homo sapiens (Human), UniProt P29597); test: Tyk2 Radioactive Kinase Assay; assay type: biochemical; conditions: for inhibition at 10 µM: read-out: Tyk2 JH1% Inhibition @ 10 μM
Sequence of Tyk2 kinase domain (DH1) (P29597 897-1176): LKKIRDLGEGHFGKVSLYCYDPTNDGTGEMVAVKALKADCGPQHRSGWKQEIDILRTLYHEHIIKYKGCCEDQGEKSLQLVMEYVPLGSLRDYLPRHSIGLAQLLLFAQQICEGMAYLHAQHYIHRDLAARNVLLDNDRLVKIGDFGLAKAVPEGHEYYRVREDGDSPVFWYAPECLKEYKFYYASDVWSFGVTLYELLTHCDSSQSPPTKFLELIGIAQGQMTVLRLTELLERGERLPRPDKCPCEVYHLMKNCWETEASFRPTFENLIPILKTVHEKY
In short: (§1)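 Compounds were tested at a single concentration of 10 μM in a radiometric kinase format against each isolated kinase domain. Activity is reported as percent inhibition at that concentration.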

[3] = molecular target: JAK2 kinase domain (JH1) (Homo sapiens (Human), UniProt O60674); test: JAK2 Radioactive Kinase Assay; assay type: biochemical; conditions: for inhibition at 10 µM: read-out: JAK2 JH1% Inhibition @ 10 μM
Sequence of JAK2 kinase domain (JH1) (O60674 849-1124): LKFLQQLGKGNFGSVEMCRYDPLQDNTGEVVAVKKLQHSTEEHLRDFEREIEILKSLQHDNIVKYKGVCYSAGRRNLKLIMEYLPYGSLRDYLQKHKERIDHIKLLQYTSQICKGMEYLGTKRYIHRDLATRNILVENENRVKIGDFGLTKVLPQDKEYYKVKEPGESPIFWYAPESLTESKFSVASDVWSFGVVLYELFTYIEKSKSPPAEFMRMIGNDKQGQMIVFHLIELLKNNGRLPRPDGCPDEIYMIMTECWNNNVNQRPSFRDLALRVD
In short: as §1

[4] = molecular target: Tyk2/JAK2 (heterodimeric complex) (Homo sapiens (Human), UniProt P29597); test: IL-12 Induced pSTAT4 in Human PBMC; assay type: cell-based; conditions: 1.7 ng/mL IL-12
Sequence of Tyk2/JAK2 (heterodimeric complex) (P29597 whole entry, other chains not shown): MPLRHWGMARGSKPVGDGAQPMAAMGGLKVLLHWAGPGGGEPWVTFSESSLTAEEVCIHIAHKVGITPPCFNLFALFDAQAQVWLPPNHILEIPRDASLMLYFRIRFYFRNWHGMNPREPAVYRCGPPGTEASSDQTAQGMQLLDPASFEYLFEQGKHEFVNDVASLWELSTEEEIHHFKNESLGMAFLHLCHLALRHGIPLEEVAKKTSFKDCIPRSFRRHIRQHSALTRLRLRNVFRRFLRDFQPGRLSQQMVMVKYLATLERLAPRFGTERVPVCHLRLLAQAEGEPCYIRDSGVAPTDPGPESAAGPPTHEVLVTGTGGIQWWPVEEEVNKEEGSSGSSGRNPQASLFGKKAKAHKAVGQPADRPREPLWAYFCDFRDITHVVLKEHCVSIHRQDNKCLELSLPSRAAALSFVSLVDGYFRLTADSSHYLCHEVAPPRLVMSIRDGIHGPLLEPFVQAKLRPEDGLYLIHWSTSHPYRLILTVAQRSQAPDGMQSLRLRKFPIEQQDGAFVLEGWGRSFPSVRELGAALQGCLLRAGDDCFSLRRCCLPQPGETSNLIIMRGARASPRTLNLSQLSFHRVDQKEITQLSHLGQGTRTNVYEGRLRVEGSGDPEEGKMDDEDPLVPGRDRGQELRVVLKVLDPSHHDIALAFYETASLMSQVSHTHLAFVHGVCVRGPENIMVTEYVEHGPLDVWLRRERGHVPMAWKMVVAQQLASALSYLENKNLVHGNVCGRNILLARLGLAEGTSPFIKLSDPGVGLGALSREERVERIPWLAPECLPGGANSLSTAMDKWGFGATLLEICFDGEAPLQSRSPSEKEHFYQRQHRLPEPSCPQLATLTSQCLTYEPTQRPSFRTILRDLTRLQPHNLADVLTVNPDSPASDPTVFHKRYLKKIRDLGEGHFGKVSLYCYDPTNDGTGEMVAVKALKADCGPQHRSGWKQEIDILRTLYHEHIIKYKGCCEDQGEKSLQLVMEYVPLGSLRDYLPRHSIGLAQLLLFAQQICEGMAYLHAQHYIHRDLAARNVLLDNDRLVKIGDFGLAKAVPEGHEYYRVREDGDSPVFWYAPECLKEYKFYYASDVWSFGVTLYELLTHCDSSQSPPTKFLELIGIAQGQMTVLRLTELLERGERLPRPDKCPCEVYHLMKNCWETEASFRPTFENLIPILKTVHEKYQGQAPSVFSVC
From the text: The IL-12 Induced pSTAT4 assay evaluates the inhibition of IL-12 induced STAT4 phophorylation mediated by Tyk2/JAK2 (heterodimeric complex).

[5] = molecular target: JAK2/JAK2 homdimeric complex (Homo sapiens (Human), UniProt O60674); test: GM-CSF Induced pSTAT5 in Human PBMC; assay type: cell-based; conditions: GM-CSF 5 ng/mL for 20 minutes, pSTAT5 by MSD, read-out: PBMC_GMCSF_pSTAT5 IC50
Sequence of JAK2/JAK2 homdimeric complex (O60674 whole entry): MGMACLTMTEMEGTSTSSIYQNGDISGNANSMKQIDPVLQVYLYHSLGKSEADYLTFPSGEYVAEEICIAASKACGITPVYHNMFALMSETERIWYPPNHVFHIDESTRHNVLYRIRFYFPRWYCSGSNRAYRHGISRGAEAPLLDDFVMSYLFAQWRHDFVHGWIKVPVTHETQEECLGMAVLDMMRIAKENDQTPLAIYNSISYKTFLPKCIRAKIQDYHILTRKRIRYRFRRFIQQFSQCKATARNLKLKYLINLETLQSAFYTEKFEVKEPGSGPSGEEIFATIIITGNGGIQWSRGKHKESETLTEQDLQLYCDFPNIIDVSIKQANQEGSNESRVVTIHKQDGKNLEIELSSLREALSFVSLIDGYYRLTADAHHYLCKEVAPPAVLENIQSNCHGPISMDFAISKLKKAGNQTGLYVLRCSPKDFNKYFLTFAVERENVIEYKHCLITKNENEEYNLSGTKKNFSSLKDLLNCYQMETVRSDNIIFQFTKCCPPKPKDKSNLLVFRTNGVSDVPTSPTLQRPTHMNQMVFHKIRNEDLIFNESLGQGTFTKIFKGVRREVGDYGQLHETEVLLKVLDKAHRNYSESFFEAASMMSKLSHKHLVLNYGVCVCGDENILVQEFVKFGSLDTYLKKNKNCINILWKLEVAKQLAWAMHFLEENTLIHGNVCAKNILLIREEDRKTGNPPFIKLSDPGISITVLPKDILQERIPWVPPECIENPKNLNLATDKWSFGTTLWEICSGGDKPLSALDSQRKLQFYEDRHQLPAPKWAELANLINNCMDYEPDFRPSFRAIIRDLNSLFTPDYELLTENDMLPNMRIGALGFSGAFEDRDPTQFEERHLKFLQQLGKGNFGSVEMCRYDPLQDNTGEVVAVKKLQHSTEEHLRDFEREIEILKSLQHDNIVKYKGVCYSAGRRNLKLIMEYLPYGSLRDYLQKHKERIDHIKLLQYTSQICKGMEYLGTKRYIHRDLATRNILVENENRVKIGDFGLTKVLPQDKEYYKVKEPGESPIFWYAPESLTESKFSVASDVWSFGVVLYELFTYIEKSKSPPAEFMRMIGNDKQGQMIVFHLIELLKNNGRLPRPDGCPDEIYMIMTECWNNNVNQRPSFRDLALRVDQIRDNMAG
Sequence of JAK2/JAK2 homdimeric complex (P32927 17-897 partner): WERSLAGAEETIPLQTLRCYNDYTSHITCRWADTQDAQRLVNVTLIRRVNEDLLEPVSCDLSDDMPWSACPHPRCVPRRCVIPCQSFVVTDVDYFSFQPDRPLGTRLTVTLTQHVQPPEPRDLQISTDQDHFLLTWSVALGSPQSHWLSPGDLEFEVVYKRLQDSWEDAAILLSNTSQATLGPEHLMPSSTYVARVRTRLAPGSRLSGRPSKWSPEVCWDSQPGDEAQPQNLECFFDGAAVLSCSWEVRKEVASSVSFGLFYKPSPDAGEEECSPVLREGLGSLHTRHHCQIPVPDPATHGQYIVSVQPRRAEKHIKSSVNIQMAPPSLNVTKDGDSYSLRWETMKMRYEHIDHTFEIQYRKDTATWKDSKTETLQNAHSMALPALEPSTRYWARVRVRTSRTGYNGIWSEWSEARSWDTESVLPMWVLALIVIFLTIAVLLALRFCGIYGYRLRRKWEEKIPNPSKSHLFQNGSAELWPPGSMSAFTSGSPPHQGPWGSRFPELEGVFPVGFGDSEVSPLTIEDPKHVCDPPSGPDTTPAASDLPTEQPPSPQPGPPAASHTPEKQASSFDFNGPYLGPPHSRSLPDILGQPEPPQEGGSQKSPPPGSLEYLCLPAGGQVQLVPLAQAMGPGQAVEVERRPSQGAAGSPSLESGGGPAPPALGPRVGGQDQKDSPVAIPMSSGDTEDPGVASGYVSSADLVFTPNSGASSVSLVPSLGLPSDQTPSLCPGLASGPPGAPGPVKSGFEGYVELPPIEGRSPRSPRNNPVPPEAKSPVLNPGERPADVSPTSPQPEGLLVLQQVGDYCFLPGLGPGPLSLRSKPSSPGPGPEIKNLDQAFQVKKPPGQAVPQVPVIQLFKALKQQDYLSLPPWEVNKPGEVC

Sequence of human TYK2 (JH2domain-pseudokinase) (P29597 556-888): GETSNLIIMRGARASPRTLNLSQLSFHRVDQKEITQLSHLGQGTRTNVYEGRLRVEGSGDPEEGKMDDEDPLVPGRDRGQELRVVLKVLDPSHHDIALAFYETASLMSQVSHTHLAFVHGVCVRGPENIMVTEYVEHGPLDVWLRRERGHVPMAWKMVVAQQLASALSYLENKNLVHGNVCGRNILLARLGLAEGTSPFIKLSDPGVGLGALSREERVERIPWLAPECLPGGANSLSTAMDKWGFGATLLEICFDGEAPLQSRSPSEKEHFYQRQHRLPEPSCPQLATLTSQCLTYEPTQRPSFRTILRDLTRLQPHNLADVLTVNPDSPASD

SMILES	Kd [1] [nM]	inhibition at 10 µM ([2]; compound at 10 μM, ATP 10 μM) [%]	inhibition at 10 µM ([3]; compound at 10 μM, ATP 10 μM) [%]	IC50 [4] [nM]	IC50 [5] [nM]	Tyk2 JH1% Inhibition @ 10 μM ([2]; compound at 10 μM, ATP 10 μM)	JAK2 JH1% Inhibition @ 10 μM ([3]; compound at 10 μM, ATP 10 μM)	inhibition at 10 µM ([2]; 10 μM compound, 10 μM ATP) [%]	inhibition at 10 µM ([3]; 10 μM compound, 10 μM ATP) [%]	Tyk2 JH1% Inhibition @ 10 μM ([2]; 10 μM compound, 10 μM ATP)	JAK2 JH1% Inhibition @ 10 μM ([3]; 10 μM compound, 10 μM ATP)
CNc1cc(Nc2cccn(C3CCCOC3)c2=O)nc2c(C(=O)NC3CCC3)cnn12 (racemic) [I-324]	< 0.2	< 50	< 50	< 100	> 50000	–	–	–	–	–	–
CNc1cc(Nc2cccc3ocnc23)nc2c(C(=O)N[C@@H]3CC[C@H]3O)cnn12 (racemic) [I-756, 5-(benzo[d]oxazol-4-ylamino)-N-(2-hydroxycyclobutyl)-7-(methylamino) pyrazolo[1,5-a]pyrimidine-3-carboxamide]	< 0.2	< 50	< 50	100 to 500	> 50000	–	–	–	–	–	–
CNc1cc(Nc2cccn(-c3ccn(C4CC4)n3)c2=O)nc2c(C(=O)N[C@@H]3C[C@@H]3F)cnn12 (stereo in doubt) [I-106, 5-((1-(1-cyclopropyl-1H-pyrazol-3-yl)-2-oxo-1,2-dihydropyridin-3-yl)amino)-N-((1R,2S)-2-fluorocyclopropyl)-7-(methylamino)pyrazolo[1,5-a]pyrimidine-3-carboxamide]	< 0.2	< 50	< 50	< 100	> 12500	–	–	–	–	–	–
CNc1cc(Nc2cccn(-c3ccnc(C)n3)c2=O)nc2c(C(=O)N[C@@H]3C[C@@H]3F)cnn12 (stereo in doubt) [I-124, N-((1R,2S)-2-fluorocyclopropyl)-7-(methylamino)-5-((1-(2-methylpyrimidin-4-yl)-2-oxo-1,2-dihydropyridin-3-yl)amino)pyrazolo[1,5-a]pyrimidine-3-carboxamide]	< 0.2	< 50	< 50	< 100	> 12500	–	–	–	–	–	–
CNc1cc(-c2cn(C(C)C)c3ncccc23)nc2c(C(=O)N[C@@H]3C[C@@H]3F)cnn12 (stereo in doubt) [I-225, N-((1R,2S)-2-fluorocyclopropyl)-5-(1-isopropyl-1H-pyrrolo[2,3-b]pyridin-3-yl)-7-(methylamino)pyrazolo[1,5-a]pyrimidine-3-carboxamide]	< 0.2	< 50	< 50	< 100	> 50000	–	–	–	–	–	–
CNc1cc(Nc2cccc(C)c2Cl)nc2c(C(N)=O)cnn12 [I-14]	< 0.2	–	–	< 100	> 50000	–	–	–	–	–	–
CNc1cc(Nc2cccnc2OC2CC2)nc2c(C(=O)N[C@H]3CC[C@@H]3O)cnn12 [I-397]	–	–	–	< 100	> 50000	A (percent inhibition at 10 μM lower than 50)	A (percent inhibition at 10 μM lower than 50)	–	–	–	–
[2H]C([2H])([2H])Oc1ncccc1Nc1cc(NC)n2ncc(C(=O)NC3CC4(COC4)C3)c2n1 [I-417, 5-((2-(methoxy-d3)pyridin-3-yl)amino)-7-(methylamino)-N-(2-oxaspiro[3.3]heptan-6-yl)pyrazolo[1,5-a]pyrimidine-3-carboxamide]	–	< 50	< 50	100 to 500	> 50000	–	–	–	–	–	–
CNc1cc(Nc2cccc(C3CCCOC3)n2)nc2c(C(=O)N[C@@H]3C[C@@H]3F)cnn12 (some centres unmarked) [I-522]	< 0.2	–	–	< 100	> 50000	–	–	–	–	–	–
CNc1cc(Nc2cccn([C@@H]3CCC[C@H](OC)C3)c2=O)nc2c(C(=O)NC3CC3)cnn12 [I-621]	–	–	–	< 100	> 50000	A (percent inhibition at 10 μM lower than 50)	A (percent inhibition at 10 μM lower than 50)	–	–	–	–
CNc1cc(Nc2cccn(-c3nc(C)co3)c2=O)nc2c(C(=O)N[C@@H]3CC[C@@H]3O)cnn12 [I-706]	–	–	–	< 100	> 50000	A (percent inhibition at 10 μM lower than 50)	A (percent inhibition at 10 μM lower than 50)	–	–	–	–
CNc1cc(Nc2cccc3ocnc23)nc2c(C(=O)N[C@H]3COC[C@H]3O)cnn12 [I-834]	–	–	–	100 to 500	> 50000	–	–	< 50	< 50	–	–
CNc1cc(-c2cn(CCN3CCCCC3)c3ncccc23)nc2c(C(=O)N[C@@H]3CC[C@H]3O)cnn12 [I-837]	–	–	–	< 100	> 12500	–	–	< 50	< 50	–	–
CNc1cc(Nc2cccc3ocnc23)nc2c(C(=O)N[C@@H]3CC[C@H]3O)cnn12 [I-857]	–	–	–	100 to 500	> 50000	–	–	< 50	< 50	–	–
CNc1cc(Nc2cccn([C@H]3CCC[C@@H](OC)C3)c2=O)nc2c(C(=O)NCC(C)(C)CO)cnn12 [I-861]	< 0.2	–	–	< 100	–	–	–	< 50	< 50	–	–
CNc1cc(Nc2cccn(-c3ncccc3F)c2=O)nc2c(C(=O)O)cnn12 [I-893, 5-((3′-fluoro-2-oxo-2H-[1,2′-bipyridin]-3-yl)amino)-7-(methylamino) pyrazolo[1,5-a]pyrimidine-3-carboxylic acid]	1 to 10	–	–	> 1000	–	–	–	< 50	< 50	–	–
CNc1cc(Nc2cccn([C@H]3CCCN(CCF)C3)c2=O)nc2c(C(=O)N[C@@H]3C[C@@H]3F)cnn12 [I-900]	< 0.2	–	–	< 100	–	–	–	< 50	< 50	–	–
CNc1cc(Nc2cccn([C@H]3CC[C@@H]3O)c2=O)nc2c(C(=O)N[C@@H]3C[C@@H]3F)cnn12 [I-916]	–	–	–	< 100	> 50000	–	–	< 50	< 50	–	–
CNc1cc(Nc2cccn(C3CCCCC3)c2=O)nc2c(C(=O)N[C@@H]3CC[C@H]3O)cnn12 [I-943]	–	–	–	< 100	> 50000	–	–	< 50	< 50	–	–
CNc1cc(Nc2cccn(-c3cccc(F)c3)c2=O)nc2c(C(=O)N[C@@H]3CC[C@H]3O)cnn12 [I-946]	–	–	–	< 100	> 50000	–	–	–	–	A (percent inhibition at 10 μM lower than 50)	A (percent inhibition at 10 μM lower than 50)
CNc1cc(-c2cn(CCN3CCN(C)CC3)c3ncccc23)nc2c(C(=O)N[C@H]3CC[C@@H]3OC)cnn12 [I-952]	–	–	–	100 to 500	> 2500	–	–	–	–	A (percent inhibition at 10 μM lower than 50)	A (percent inhibition at 10 μM lower than 50)
CNc1cc(-c2cn(C3CC3)c3ncccc23)nc2c(C(=O)N[C@H]3CC[C@H]3O)cnn12 [I-992, 5-(1-cyclopropyl-1H-pyrrolo[2,3-b]pyridin-3-yl)-N-((1S,2R)-2-hydroxycyclobutyl)-7-(methylamino)pyrazolo[1,5-a]pyrimidine-3-carboxamide]	–	–	–	< 100	> 50000	–	–	–	–	A (percent inhibition at 10 μM lower than 50)	A (percent inhibition at 10 μM lower than 50)
CNc1cc(Nc2cccn([C@@H]3CCC[C@H](OC)C3)c2=O)nc2c(C(=O)N[C@@H]3CC[C@H]3OC)cnn12 [I-995]	–	–	–	< 100	> 50000	–	–	–	–	A (percent inhibition at 10 μM lower than 50)	A (percent inhibition at 10 μM lower than 50)
